According to patent US20160115542A1, “BIOMARKER OF Nrf2 ACTIVATION” (MOCHIDA PHARMACEUTICAL CO., LTD., priority 2013, published 2016):

Legend:
mouse Fgf21 reporter = assay: FGF21 promoter (mouse Fgf21 reporter) luciferase assay in Hepa1 cells; format: cell-based; conditions: 100 nM, 48 hours
Protocol: Cloning of the mouse FGF21 promoter region was performed using a known technique. By using the mouse Fgf21 […] sequence as a template, a sequence (about 2.1 kbp) amplified with the primers 1.1 and 1.2 below was cloned into pGL4.15 vector (Promega) to create a mouse Fgf21 reporter vector.
The mouse Nrf2 cDNA sequence was cloned into pcDNA3.1/V5-His B vector (Invitrogen) to create a mouse Nrf2 expression vector.
Mouse hepatoma cells Hepa1c1c7 (Hepa1) were cultured in Dulbecco's Modified Eagle medium (Wako) supplemented with 10% fetal bovine serum, and 1% penicillin-streptomycin (Gibco). The mouse Fgf21 reporter vector and mouse Nrf2 expression vector, or the mouse Fgf21 reporter vector and an empty vector (mock) were transfected into Hepa1 cells using Lipofectamine 2000 Transfection Reagent (Invitrogen). The cells were cultured for 6 hours, and the medium was removed. The cells were further cultured for 48 hours after adding a medium containing 100 nM of Nrf2 activator CDDO-Im (2-cyano-3,12-dioxooleana-1,9(11)-dien-28-oic acid imidazol) or 0.1% dimethylsulfoxide (vehicle; Wako). Luciferase activity was then measured using a luminometer (Berthold).

[1] = system: high-fat-diet (HFD)-induced obesity; conditions: repetitive administration; cited from earlier work
FGF21 [2] = assay: FGF21 induction by administration of Nrf2 activator in diabetic db/db mice (plasma ELISA, hepatic qPCR); format: in vivo, mouse; conditions: oral 10 mg/kg once a day for 1 week
Protocol: (§1) FGF21 plasma concentration was measured using mouse/rat FGF21 Quantikine ELISA Kit (R & D Systems, Minneapolis, Minn., USA).
(§2) Total RNA was extracted from liver tissue using Isogen RNA extract kit (Nippon Gene), and reverse-transcribed to cDNA using SuperScript III (Invitrogen). Quantitative real-time PCR (qPCR) was carried out using TaqMan probes using an ABI 7300 system (Applied Biosystems). Relative expression of genes was normalized against Hprt (hypoxanthine guanine phosphoribosyl transferase) mRNA. The following primers and probes were used: […]
Using spontaneous diabetic db/db mice, plasma FGF21 concentration and hepatic Fgf21 gene expression level were compared after administration of the Nrf2 activator. CDDO-Im was used as the Nrf2 activator, and orally administered in 10 mg/kg, once a day for 1 week. Blood and tissue were collected under isoflurane anesthesia after certain hours from the administration, and plasma FGF21 concentration and hepatic Fgf21 mRNA expression level were measured in the same manner as in the method described in (1-2).

Nqo1 = assay: Time-course of hepatic Nqo1 gene expression after single Nrf2 activator administration; format: in vivo, mouse; conditions: db/db mice, single oral administration 30 μmol/kg
Protocol: as §2
(§3) CDDO-Im was used as the Nrf2 activator, and orally administered to db/db mice in 30 μmol/kg. Blood and tissue were collected under isoflurane anesthesia after certain hours from the administration, and expression of the Nrf2 target gene Nqo1 in liver and plasma FGF21 concentration were measured in the same manner as in the method described in (1-2). The following primers and probes were used: […]

FGF21 [3] = assay: Time-course of plasma FGF21 concentration after single Nrf2 activator administration; format: in vivo, mouse; conditions: db/db mice, single oral administration 30 μmol/kg
Protocol: as §1, §3

[4] = system: HFD-induced obesity model and diabetic db/db model mice; conditions: cited from earlier work
[5] = system: type 2 diabetes model rats; conditions: cited from earlier work
[6] = system: HFD-induced insulin resistance and obesity; conditions: cited from earlier work
[7] = system: STZ-induced type 1 diabetic mice; conditions: cited from earlier work

For `CC1(C)CC[C@]2(C(=O)n3ccnc3)CC[C@]3(C)[C@H](C(=O)C=C4[C@@]5(C)C=C(C#N)C(=O)C(C)(C)[C@@H]5CC[C@]43C)[C@@H]2C1` [CDDO-Im, 1-[2-cyano-3,12-dioxooleana-1,9(11)-dien-28-oyl]imidazole], the “luciferase activity enhancement compared with the vehicle” value (mouse Fgf21 reporter; Fgf21 reporter + empty vector (mock)) is given as “about 2 fold”, the “luciferase activity with transfection of mouse Nrf2 expression vector and addition of compound” value (mouse Fgf21 reporter; Fgf21 reporter + mouse Nrf2 expression vector) is given as “further increased” and the “high-fat-diet (HFD)-induced obesity” value [1] is given as “prevents”. The “induction of hepatic FGF21 gene expression level in Nrf2 gene knockout db/db mice” value (FGF21 [2]; Nrf2 gene knockout db/db mice) was “abolished”, the “induction of plasma FGF21 concentration in Nrf2 gene knockout db/db mice” value (FGF21 [2]; Nrf2 gene knockout db/db mice) was “abolished” and the “hepatic FGF21 gene expression level” value (FGF21 [2]; db/db mice, vs vehicle) was “significantly increased”. The “plasma FGF21 concentration” value (FGF21 [2]; db/db mice, vs vehicle) was “significantly increased”, the “Nqo1 gene expression in liver” value (Nqo1) was “increased” and the “time for which increased hepatic Nqo1 expression level was sustained after administration” value (Nqo1) was 48 h. For the same compound, the “plasma FGF21 concentration” value (FGF21 [3]) was “increased” and the “time postdose until which increased plasma FGF21 concentration was maintained” value (FGF21 [3]) was 48 h.

In the case of `COC(=O)[C@]12CCC(C)(C)C[C@H]1[C@H]1C(=O)C=C3[C@@]4(C)C=C(C#N)C(=O)C(C)(C)[C@@H]4CC[C@@]3(C)[C@]1(C)CC2` [CDDO-Me, 2-cyano-3,12-dioxooleana-1,9(11)-dien-28-oic acid methyl ester], the “blood glucose level and plasma lipid level” value [4] is listed as “reduce”.

In the case of `O=C(/C=C/c1ccc(O)c2c1[C@H](C(=O)O[C@H](Cc1ccc(O)c(O)c1)C(=O)O)[C@@H](c1ccc(O)c(O)c1)O2)O[C@H](Cc1ccc(O)c(O)c1)C(=O)O` [lithospermic acid B (LAB), lithospermic acid B], the β cell injury [5] is listed as “protected β cell injury”.

For `Cc1c(-c2cnccn2)ssc1=S` [oltipraz], the “HFD-induced insulin resistance and obesity” value [6] is given as “attenuates”.

In the case of `C[S+]([O-])CCCCN=C=S` (stereo not drawn) [sulforaphane], the β cell injury [7] is listed as “protected β cell injury”.
